Assay [1] relates to 22Rv1 prostate cancer cells. The assay can be described thus: Cell proliferation assay in 22Rv1. Type of assay: cell-based. The note with it: Homo sapiens, 22Rv1, 168 h, 22Rv1, 7 days; for inhibition at 0.37 µM: single agent at 370 nM. The protocol:
The purpose of the following cell proliferation assay is to detect whether the compound of Example 2 and combinations thereof have an effect on cell proliferation.
22Rv1 (purchased from ATCC CRL-2505) cells are seeded at a density of 1,000 cells per well in RMPI 10% FBS (20 μL volume) into a clear bottom 384-well cell culture plate. The plate is incubated at 37° C. and 5% CO2. The cells are dosed the following day with the compound of Example 2 and the compound of Example 2 in combination with the known anti-cancer therapeutics found in the table below. An Echo 555 acoustic dispenser is used to prepare serial dilutions (1:3) of the compound of Example 2, and combinations thereof, in concentrations ranging from 60 μM to 0.003 μM. The cells are then dosed by addition of 5 μL from the serial dilution plate to the cell plate, producing a final DMSO concentration of 0.2% with a final concentration dose ranging from 20 μM to 0.001 μM for the compound of Example 2 and combinations thereof.
Media containing 0.2% DMSO is used for the maximum point and 2 μM staurosporine in the growth media containing 0.2% DMSO is used for the minimum point. After dosing with the compound of Example 2 and combinations thereof, the cell plates are incubated at 37° C. and 5% CO2. Seven days after test compound addition, plates are removed from the incubator and cold EtOH (96%, 65 μL) is added to each well. After 30 minutes, the media is removed and RNase (20 μL, 50 μg/mL) (Sigma) and a 1:1000 propidium iodide dilution in PBS are added to each well. The plates are sealed and incubated for 1 hour at room temperature and preserved from light. Plates are then scanned with ACUMEN EXPLORER™ [Laser-scanning fluorescence microplate cytometer manufactured by TTP LABTECH LTD]. The number of 22Rv1 cells is evaluated through an estimated number of cells, calculated through the area parameter (ratio of total area of the total cells population), a designated range of peak intensity of FL-3 (PI), and the mean area of the single cell population defined by perimeter. Data is then processed through an NGR screening tool. Data is analyzed using a 4-parameter nonlinear logistic equation (four-parameter logistic concentration-response curve): Y=bot+[(top−bot)/1+(x/IC50)slope] where Y=% inhibition, X=concentration yielding y % inhibition, “bot”=minimum value of y attained by curve, “top”=maximum value of y attained by curve, and “slope”=steepness of curve at IC50. % Inh=[(median Max−x/median Max−median Min)]·100.

Another assay has as its target T1, hBRD4 (Homo sapiens, UniProt O60885).
T1 construct: NanLuc-BRD4 Full Length (Promega, 0.0002 μg); host or cells: HEK293
The assay is described as follows: NanoBRET assay, BRD4 full length. Type of assay: cell-based. The note with it: NanoBRET in HEK293 cells, read after overnight incubation; mean ± Standard Deviation. The protocol:
(§1) HEK293 cells are seeded at 10×10^6 cells/16 mL in DMEM+10% FBS in a T-75 flask and left to attach for 4-6 hours. Transfection reagents are diluted in Opti-MEM media (no phenol red, no FBS) and 8% Fugene HD containing expression plasmids at a final concentration of the following: 1: Histone H3.3 HaloTag DNA (Promega, 0.02 μg)+NanoLuc-CREBBP-BD (Promega, 0.0002 μg); 2: Histone H3.3 HaloTag DNA (Promega, 0.02 μg)+NanoLuc-EP300-BD (Promega, 0.0002 μg); 3: Histone H4 HaloTag DNA (0.02 μg)+NanLuc-BRD4 Full Length (Promega, 0.0002 μg). The DNA/Fugene mixtures are left at RT for 10 minutes. Transfection mix (800 μL) is added per flask and immediately swirled to cover the cells. The plates are returned to the incubator for overnight transfection. The next day, HaloTag NanoBRET 618 ligand (20 μL/vial of 0.1 mM) is thawed at RT. […]
(§2) Compound is serially diluted and added to 96-well plates (2 10 mM, 3-fold dilutions, 100% DMSO). […] CREBBP/EP300 plates are read after 4 hours incubation and the BRD4 plates are read after overnight incubation. To develop plates for reading, allow all reagents to reach RT before use. […] The plate is shaken for 1 minute to mix and within 10 minutes, read on Envision plate reader with the following settings: Mirror: Luminescence; Emission filter: E600LP; 2nd emission filter: D460/50; Measurement height (mm): 6.5; Measurement time (s): 0.2 second.
For orientation: In BRET a luciferase serves as donor, and the signal depends on an acceptor being close.

The subject of a further assay is SW780. The assay is described as follows: Cell growth inhibition assay, SW780. Type of assay: cell-based. The note with it: Homo sapiens, 168 h; SW780, 7 days. How it is done:
(§3) Tumor cell lines are plated onto 96-well, black wall poly-D-lysine plates (Corning #354640), and incubated at 37° C., 5% CO2 for 18-24 hours. Compound was added at 1:3 dilutions in DMSO and cells were incubated at 37° C., 5% CO2 for 7 days. For adherent cell lines, cells were fixed and stained with propidium iodide and scanned on Acumen (channel 3 setting). For suspension cell lines, cell growth was monitored using Cell Titer-Glo reagent.

The subject of a further assay is NCI-H1048. The assay can be described thus: Cell growth inhibition assay, NCI-H1048. Type of assay: cell-based. The note with it: Homo sapiens, 168 h; NCI-H1048, 7 days. The protocol: as §3
In another assay the test system is NCI-H211. The assay is described as follows: Cell growth inhibition assay, NCI-H211. Type of assay: cell-based. The note with it: Homo sapiens, 168 h; NCI-H211, 7 days. The protocol:
as §3

The test system of another assay is EOL-1. The assay can be described thus: Cell growth inhibition assay, EOL-1. Type of assay: cell-based. The note with it: Homo sapiens, EOL1, 168 h; EOL-1, 7 days. How it is done: as §3
The test system of another assay is MDA-MIB-453. The assay is described as follows: Cell growth inhibition assay, MDA-MIB-453. Type of assay: cell-based. The note with it: 168 h; MDA-MIB-453, 7 days. How it is done: as §3
The test system of another assay is KG-1a. The assay is described as follows: Cell growth inhibition assay, KG-1a. Type of assay: cell-based. The note with it: Homo sapiens, 168 h, 7 days. How it is done: as §3
Another assay has as its target T2, BRD4 (BD1) (Homo sapiens, UniProt O60885).
T2 construct: BRD4 (Bromodomain 1 (BD1) and Bromodomain 2 (BD2)); purchased DiscoverX (BromoKdELECT service)
The assay is described as follows: BromoKdELECT platform assay, BRD4 (BD1). Type of assay: binding. The note with it: 11 points dose-response, mean from a duplicate experiment. From the text: (§4) The purpose of this assay is to evaluate the in vitro target engagement and selectivity (https://www.discoverx.com/services/drug-discovery-development-services/epigenetic-profiling/bromoscan-epigenetic-profiling/bromokdelect). Assay measurement is based on the amount of bromodomain captured in test and control samples by using quantitative PCR technology that detects the DNA label associated to bromodomain. Compounds that bind the bromodomain active site prevents its binding to the immobilized ligand and will reduce the amount of bromodomain captured on the solid support. […] Thus, compound activity is monitored by measuring the amount of bromodomain captured in test versus control samples by using qPCR. Binding affinity for test compound-bromodomain interactions are calculated by measuring the amount of bromodomain captured on the solid support as a function of the test compound concentration.
(§5) Binding affinity (Kd) of the compounds of Examples 1 and 2 towards CREBBP, EP300 and BRD4 (Bromodomain 1 (BD1) and Bromodomain 2 (BD2)) are determined in an 11 points dose-response study (See Table 5). Data is represented as a mean from a duplicate experiment.

The target of another assay is T3, BRD4 (BD1, BD2) (Homo sapiens, UniProt O60885).
T3 construct: BRD4 (Bromodomain 1 (BD1) and Bromodomain 2 (BD2)); purchased DiscoverX (BromoKdELECT service)
The assay is described as follows: BromoKdELECT platform assay, BRD4 (BD1, BD2). The note with it: 11 points dose-response, mean from a duplicate experiment. Type of assay: binding.
From the text: as §4, §5

The target of a further assay is T4, BRD4 (BD2) (Homo sapiens, UniProt O60885).
T4 construct: BRD4 (Bromodomain 1 (BD1) and Bromodomain 2 (BD2)); purchased DiscoverX (BromoKdELECT service)
The assay is described as follows: BromoKdELECT platform assay, BRD4 (BD2). The note with it: 11 points dose-response, mean from a duplicate experiment. Type of assay: binding.
From the text: as §4, §5

Assay [2] deals with T5, EP300 (Homo sapiens, UniProt Q09472).
T5 sequence (Q09472 1049-1156 limits assumed): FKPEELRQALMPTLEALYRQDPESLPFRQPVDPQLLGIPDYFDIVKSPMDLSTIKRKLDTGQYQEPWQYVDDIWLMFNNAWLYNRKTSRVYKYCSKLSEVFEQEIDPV
The assay is described as follows: BromoKdELECT platform assay, EP300. The note with it: 11 points dose-response, mean from a duplicate experiment. Type of assay: binding. Also on record: purchased DiscoverX (BromoKdELECT service).
From the text: as §4, §5

In assay [3] the target is T6, CREBBP (Homo sapiens, UniProt Q92793). The assay is described as follows: BromoKdELECT platform assay, CREBBP. Type of assay: binding. The note with it: 11 points dose-response, mean from a duplicate experiment. Also on record: purchased DiscoverX (BromoKdELECT service).
From the text: as §4, §5

Assay [4] addresses T5, EP300. The assay is described as follows: NanoBRET assay, EP300 bromodomain. Type of assay: cell-based. Details: NanoLuc-EP300-BD (Promega, 0.0002 μg); host or cells: HEK293. The note with it: NanoBRET in HEK293 cells, read after 4 hours incubation; mean ± Standard Deviation. The protocol:
as §1, §2

Assay [5] concerns the target T6, CREBBP. The assay can be described thus: NanoBRET assay, CREBBP bromodomain. Type of assay: cell-based. Also on record: NanoLuc-CREBBP-BD (Promega, 0.0002 μg); host or cells: HEK293. The note with it: NanoBRET in HEK293 cells, read after 4 hours incubation; mean ± Standard Deviation. The protocol: as §1, §2

T6 sequence (Q92793 1085-1192 limits assumed): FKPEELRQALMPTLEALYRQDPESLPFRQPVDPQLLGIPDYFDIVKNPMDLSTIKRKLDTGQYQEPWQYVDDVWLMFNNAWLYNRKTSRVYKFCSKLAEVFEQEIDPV

One may read the inhibition as the relative decrease from the control value, in per cent. For `CNC(=O)c1ccc(N2C(=S)N(c3ccc(C#N)c(C(F)(F)F)c3)C(=O)C2(C)C)cc1F` [Enzalutamide, enzalutamide, reference compound], the inhibition at 0.37 µM in assay [1] was -0.12%. Further, the inhibition at 3.3 µM in [1] (single agent at 3.3 μM) was 0.41%.

With `CC(O)c1cc(C(=O)N[C@@H](C)Cn2ccc(-c3ccc(C#N)c(Cl)c3)n2)[nH]n1` (stereo partly shown) [Darolutamide, darolutamide, reference compound], in assay [1] (single agent at 740 nM), the inhibition at 0.74 µM was determined as 6.69%. In assay [1] (single agent at 2.2 μM), the inhibition at 2.2 µM came to 6.18%.

`CCN1CCN(Cc2ccc(Nc3ncc(F)c(-c4cc(F)c5nc(C)n(C(C)C)c5c4)n3)nc2)CC1` [Abemaciclib, abemaciclib, reference compound]: the inhibition at 0.012 µM in assay [1] (single agent at 12 nM) worked out at 34.3%. Besides, the inhibition at 0.037 µM in assay [1] (single agent at 37 nM) stood at 62.4%.

The term IC50 denotes the midpoint of a concentration-inhibition curve. A low value points to inhibition by little substance. A word on the Kd: it is the free concentration of one partner at which half of the binding sites on the other are occupied at equilibrium, for simple one-to-one binding. In the case of `CNC(=O)c1ccc(-c2cc3cccc(-c4nn(C)c5c4CN(C)C(=O)CC5)c3cn2)cn1` [Example 1, 5-[8-(1,5-Dimethyl-6-oxo-7,8-dihydro-4H-pyrazolo[4,3-c]azepin-3-yl)-3-isoquinolyl]-N-methyl-pyridine-2-carboxamide], the IC50 was 5570 ± 4100 nM against hBRD4; 1 nM in the assay on SW780; 10 nM with NCI-H1048; 36 nM with NCI-H211; 0.8 nM with EOL-1; 28 nM in the assay with MDA-MIB-453. In addition, the half-maximal inhibitory concentration (IC50) is 37 nM in the assay with KG-1a, 15.1 ± 2.75 nM against EP300 [4] and 16 ± 6.64 nM against CREBBP [5]. Besides, the dissociation constant (Kd) at BRD4 (BD1) was 2000 nM; at BRD4 (BD1, BD2) it was 4400 nM; at BRD4 (BD2), 6700 nM; on EP300 [2], 0.16 nM; at CREBBP [3], 1.1 nM.

As for `Cc1nc(NC(=O)N2CCC[C@H]2C(N)=O)sc1-c1ccnc(C(C)(C)C(F)(F)F)c1` [Alpelisib, alpelisib, reference compound], the inhibition at 0.12 µM in assay [1] (single agent at 120 nM) is 33.1%. In addition, in [1], the inhibition at 0.37 µM turned out to be 45.3%.

The record behind these values is US20220251096A1, “7,8-DIHYDRO-4H-PYRAZOLO[4,3-c]AZEPINE-6-ONE COMPOUNDS” (Eli Lilly and Company, priority 2019, published 2022).
